# Results taken from patent US20230063321A1, “Methods for Treating Inflammatory Bowel Diseases with alpha4beta7 Integrin Antagonists” (Protagonist Therapeutics, Inc., priority 2020, published 2023).
# Entries after “also recorded” stand apart in the source; their conditions may differ. Numbered stars: 1 amine (or outer) side, 2 acyl side, 3 side chain; on linkers, the order of the positions; unused ones are H or OH. Bridge positions count the residues as written; N and C are the ends. Square brackets hold non-standard residues; d marks the D form. Peptide text beside a SMILES is read from it. I, II: the chains in the order shown. ξ: configuration not given here. Phe(4-tBu) = CC(C)(C)c1ccc(C[C@H](N)C(=O)O)cc1; Diglycolyl = O=C(COCC(=O)[*:2])[*:1]; NMeR = CN[C@@H](CCCNC(=N)N)C(=O)O; β3hE = N[C@@H](CCC(=O)O)CC(=O)O; Thr(3ξ) = CC(O)[C@H](N)C(=O)O; X1 = O=C(c1ccccc1C[*:2])[*:1]; Pen = CC(C)(S)[C@H](N)C(=O)O
# Tests used:
# [1] = Safety and tolerability in healthy volunteers; details: for tolerability: single and multiple oral doses
# [2] = molecular target: T1, α4β7 integrin (Homo sapiens, UniProt P13612+P26010); test: MAdCAM1-mediated cytokine production by CD4+ T-cells (MSD/luminex multiplex); format: cell-based; details: IFNγ, IL-5, IL-6, IL-10, IL-13, GM-CSF, TNFα; three donors
# T1 construct: endogenous in cells; host or cells: primary human CD4+ T cells enriched from PBMCs of healthy donors
# T1 sequence (P13612 34-1032): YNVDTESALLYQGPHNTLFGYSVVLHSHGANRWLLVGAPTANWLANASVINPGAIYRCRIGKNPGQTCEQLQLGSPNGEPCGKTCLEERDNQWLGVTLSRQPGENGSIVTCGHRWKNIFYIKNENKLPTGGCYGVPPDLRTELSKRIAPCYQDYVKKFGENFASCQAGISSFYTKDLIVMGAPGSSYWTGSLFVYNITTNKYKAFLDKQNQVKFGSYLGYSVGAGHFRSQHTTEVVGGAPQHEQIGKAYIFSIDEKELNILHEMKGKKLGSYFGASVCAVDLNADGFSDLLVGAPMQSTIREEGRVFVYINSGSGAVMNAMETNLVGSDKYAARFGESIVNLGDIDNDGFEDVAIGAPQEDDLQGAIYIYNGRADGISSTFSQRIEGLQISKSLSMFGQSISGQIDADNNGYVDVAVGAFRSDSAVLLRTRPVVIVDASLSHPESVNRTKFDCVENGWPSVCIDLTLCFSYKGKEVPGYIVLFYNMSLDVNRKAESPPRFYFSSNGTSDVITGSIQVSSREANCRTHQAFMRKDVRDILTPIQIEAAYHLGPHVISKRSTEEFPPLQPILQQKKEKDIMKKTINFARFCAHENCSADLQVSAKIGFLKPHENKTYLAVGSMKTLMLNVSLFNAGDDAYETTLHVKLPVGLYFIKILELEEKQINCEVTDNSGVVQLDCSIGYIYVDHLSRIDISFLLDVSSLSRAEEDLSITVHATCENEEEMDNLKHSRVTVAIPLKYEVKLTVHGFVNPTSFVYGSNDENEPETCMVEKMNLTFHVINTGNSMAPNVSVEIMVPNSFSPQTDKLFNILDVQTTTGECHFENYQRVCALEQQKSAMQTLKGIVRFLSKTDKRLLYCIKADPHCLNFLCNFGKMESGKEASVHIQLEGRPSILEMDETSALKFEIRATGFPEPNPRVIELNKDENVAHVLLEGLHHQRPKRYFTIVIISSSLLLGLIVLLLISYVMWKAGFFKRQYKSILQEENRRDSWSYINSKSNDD
# T1 sequence (P26010 20-798): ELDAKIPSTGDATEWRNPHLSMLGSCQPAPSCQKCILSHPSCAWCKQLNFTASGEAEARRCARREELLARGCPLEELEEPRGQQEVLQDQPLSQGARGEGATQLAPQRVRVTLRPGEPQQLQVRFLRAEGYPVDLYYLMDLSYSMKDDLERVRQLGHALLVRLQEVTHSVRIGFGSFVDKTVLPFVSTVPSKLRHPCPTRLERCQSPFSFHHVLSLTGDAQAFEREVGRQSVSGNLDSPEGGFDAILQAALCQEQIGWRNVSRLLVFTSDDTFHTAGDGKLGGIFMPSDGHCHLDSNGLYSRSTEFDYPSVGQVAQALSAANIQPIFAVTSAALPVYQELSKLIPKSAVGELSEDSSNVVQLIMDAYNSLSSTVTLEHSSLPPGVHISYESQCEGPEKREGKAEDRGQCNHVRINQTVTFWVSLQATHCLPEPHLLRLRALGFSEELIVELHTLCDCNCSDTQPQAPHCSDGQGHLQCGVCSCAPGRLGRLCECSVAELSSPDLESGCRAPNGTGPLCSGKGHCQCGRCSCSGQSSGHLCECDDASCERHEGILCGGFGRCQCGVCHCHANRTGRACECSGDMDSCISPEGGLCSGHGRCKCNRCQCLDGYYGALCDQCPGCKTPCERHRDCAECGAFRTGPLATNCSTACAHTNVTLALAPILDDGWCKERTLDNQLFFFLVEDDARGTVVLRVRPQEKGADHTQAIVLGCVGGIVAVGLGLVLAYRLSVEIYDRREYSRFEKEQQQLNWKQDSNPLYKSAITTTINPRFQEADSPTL
# Description: PBMCs were purified from three healthy human donors (Donors 7, 10, and 11), and enrichment of CD4+ T cells was performed.
# [3] = test system: integrin β7, integrin α4 and CCR9 on cultured CD3+ cells; test: Gut homing receptor expression on T cells cultured with ATRA; format: cell-based, B6.SJL mice; details: 100 and 1000 nM in culture
# Description: (§1) Purified CD3+ cells were isolated from B6.SJL (CD45.1+) donor mice and cultured in the presence of anti-CD3/anti-CD28 beads and IL-2 to induce T cell activation and proliferation. In some culture conditions, Compound A and/or ATRA were added. To track the cells in vivo, ATRA− and ATRA+ cells were labeled with CMFDA and CTFR respectively. These labeled cells were then co-injected into C57BL/6 (CD45.2+) recipient mice.
# Eighteen (18) B6.SJL (CD45.1+) donor mice were acclimated for 3 to 9 weeks before the start of the study and were 11 to 16 weeks old at culture setup (Day 0). On Day 0, spleen and lymph node cells were isolated from donor mice and pooled. CD3+ cells were enriched using […] Technologies kit catalog number 19851. Purity of enriched cells was confirmed by flow cytometry.
# Approximately 44% of the cells were then cultured at 1.5×10^6/mL in the presence of anti-CD3/CD28 beads (Dynabeads, ThermoFisher 11453D), with a 1:1 cell to bead ratio (ATRA−, per Table 4 below). […] All-trans retinoic acid (ATRA) was then added to these cultures at a concentration of 0.1 μM.
# On Day, 1 IL-2 was added to all cultures to reach a concentration of 30 U/mL.
# [4] = test system: gut homing of ATRA+ T cells; test: Gut homing of cultured T cells transferred into recipient mice; format: in vivo, C57BL/6 mice
# Description: as §1
# The proportion of ATRA− and ATRA+ cells in spleen, Peyer's patches (PP), and ileal lamina propria (LP) of the recipient mice was measured by flow cytometry to evaluate cell homing.
# Thirty-eight (38) C57BL/6 (CD45.2+) recipient mice were acclimated for 9 weeks before the start of the study (Day 0) and were 16 weeks old at cell transfer (Day 5). On Day 4, recipient mice were assigned to groups in a balanced manner to achieve similar average weight across the groups.
# On Day 5, after removal of CD3/CD28 beads from cell cultures with a magnet, ATRA+ cells were labeled with CFTR, and ATRA− cells were labeled with CMFDA. Cells from each culture condition were then counted. For each group, ATRA− cells and cells from one of the ATRA+ culture conditions were mixed at a 1:1 ratio per Table 8 below and transferred into the recipient mice. Approximately 13 million of each type of cells (total of 26 million cells) were injected i.v. into each mouse.
# Mice in Group 2 were dosed with anti-VLA-4 once, on Day 5 prior to cell transfer. Anti-VLA-4 (PS/2) antibodies were purchased from BioXCell and were kept at −80 C until needed. Antibodies were diluted to a final concentration of 1 mg/mL with sterile PBS and dosed at 10 mg/kg, intraperitoneally. No in vivo treatment was administered to other groups.
# Twenty (20) to 22 hours after cell transfer all mice were euthanized, and their blood, spleen, Peyer's patches and small intestines collected. Approximately 50 μL of plasma was isolated from the blood of each mouse and sored on dry ince until further analysis.
# Cells from the following tissues were isolated from each mouse for flow cytometric analysis: • Spleen • Peyer's patches • Ileal lamina propria Isolated cells were counted and stained with anti-CD45.1 antibodies and live/dead stain. Cells were then acquired for flow cytometric analysis and the proportions of CD45.1+, ATRA+ and ATRA− cells in each tissue determined.
# [5] = molecular target: T2, α4β7 receptor occupancy (Homo sapiens, UniProt P13612+P26010); test: Plasma concentration-receptor occupancy relationship, sigmoid Emax (Hill) model; details: in vivo
# T2 construct: the amount of α4β7 expression on the cell surface of circulating lymphocytes; endogenous in cells; host or cells: heparinized whole blood of healthy volunteers
# T2 sequence (P13612 34-1032): as the sequence (P13612 34-1032) above
# T2 sequence (P26010 20-798): as the sequence (P26010 20-798) above
# [6] = molecular target: T3, α4β7 (Mus musculus, UniProt P26011+Q00651); test: α4β7 receptor occupancy in whole blood and Peyer's patches after oral dosing; format: in vivo, C57BL/6 mice
# T3 construct: mice were euthanized and whole blood/plasma and Peyer's patches were collected; from tissue; host or cells: whole blood and Peyer's patches of C57BL/6 mice
# T3 sequence (Q00651 41-1039): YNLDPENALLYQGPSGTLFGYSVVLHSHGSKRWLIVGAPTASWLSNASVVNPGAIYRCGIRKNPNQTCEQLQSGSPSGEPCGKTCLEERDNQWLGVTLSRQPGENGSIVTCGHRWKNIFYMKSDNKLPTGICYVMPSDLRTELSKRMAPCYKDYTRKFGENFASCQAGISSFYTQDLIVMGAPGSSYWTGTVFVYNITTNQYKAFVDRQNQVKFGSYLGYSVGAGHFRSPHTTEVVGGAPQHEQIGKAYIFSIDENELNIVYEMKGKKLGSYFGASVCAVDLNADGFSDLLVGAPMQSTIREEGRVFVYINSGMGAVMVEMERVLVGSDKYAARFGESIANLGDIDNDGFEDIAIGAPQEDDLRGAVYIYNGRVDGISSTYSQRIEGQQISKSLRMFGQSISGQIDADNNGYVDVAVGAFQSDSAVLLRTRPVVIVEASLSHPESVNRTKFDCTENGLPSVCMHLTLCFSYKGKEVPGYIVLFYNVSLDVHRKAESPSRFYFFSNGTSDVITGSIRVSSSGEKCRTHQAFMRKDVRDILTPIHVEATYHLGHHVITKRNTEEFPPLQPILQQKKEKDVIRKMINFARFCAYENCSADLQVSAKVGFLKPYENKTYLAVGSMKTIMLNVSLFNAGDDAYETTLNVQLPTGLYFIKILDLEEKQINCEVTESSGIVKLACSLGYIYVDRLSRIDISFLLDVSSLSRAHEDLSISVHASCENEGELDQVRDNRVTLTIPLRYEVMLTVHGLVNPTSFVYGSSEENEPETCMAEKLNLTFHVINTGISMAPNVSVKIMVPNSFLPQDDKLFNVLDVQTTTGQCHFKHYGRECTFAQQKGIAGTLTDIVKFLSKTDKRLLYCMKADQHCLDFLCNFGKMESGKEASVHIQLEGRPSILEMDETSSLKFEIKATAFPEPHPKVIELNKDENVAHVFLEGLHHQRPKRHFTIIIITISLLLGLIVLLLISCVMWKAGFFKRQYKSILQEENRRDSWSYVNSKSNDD
# T3 sequence (P26011 20-806): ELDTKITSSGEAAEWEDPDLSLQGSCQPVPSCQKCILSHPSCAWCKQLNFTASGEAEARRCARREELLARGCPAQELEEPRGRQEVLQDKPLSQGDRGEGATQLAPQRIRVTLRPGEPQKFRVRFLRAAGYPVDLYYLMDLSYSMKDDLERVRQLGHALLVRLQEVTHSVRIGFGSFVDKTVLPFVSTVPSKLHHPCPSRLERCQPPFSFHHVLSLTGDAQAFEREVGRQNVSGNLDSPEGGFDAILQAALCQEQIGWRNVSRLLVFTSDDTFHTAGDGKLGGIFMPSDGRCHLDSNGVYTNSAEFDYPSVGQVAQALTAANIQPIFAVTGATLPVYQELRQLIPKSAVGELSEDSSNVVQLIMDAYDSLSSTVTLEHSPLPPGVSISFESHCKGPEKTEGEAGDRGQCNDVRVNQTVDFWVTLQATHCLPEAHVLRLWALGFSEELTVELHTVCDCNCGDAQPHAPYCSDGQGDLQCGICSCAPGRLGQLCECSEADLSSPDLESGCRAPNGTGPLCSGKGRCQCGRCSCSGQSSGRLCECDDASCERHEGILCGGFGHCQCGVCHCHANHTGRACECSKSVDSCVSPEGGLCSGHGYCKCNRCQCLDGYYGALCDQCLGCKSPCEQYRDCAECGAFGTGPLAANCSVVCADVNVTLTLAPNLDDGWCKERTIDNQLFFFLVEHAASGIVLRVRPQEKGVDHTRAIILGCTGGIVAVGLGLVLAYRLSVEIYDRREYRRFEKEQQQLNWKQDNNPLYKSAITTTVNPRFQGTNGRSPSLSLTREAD
# Description: (§2) One hour following dosing, mice were euthanized and whole blood/plasma and Peyer's patches were collected. Peyer's patches were dispersed in 1 mL RPMI medium with 2% FBS without washing step. Whole blood and single cell suspension of Peyer's patches (100 uL out of 1 mL total) were submitted for flow cytometry to determine α4β7 receptor occupancy. % RO=(1−(% positive test sample/% positive median vehicle control))*100. Plasma and Peyer's patches dispersed in single cell suspension (500 uL of 1 mL total) were also analyzed for drug exposure.
# [7] = test system: primary CD4+ T-cells; test: Flow cytometry phenotype of proliferated CD4+ T-cells (Th subsets, surface β7); format: cell-based, human
# Description: PBMCs were purified from healthy human donors and enrichment of CD4+ T cells was performed. […] Phenotype, distribution of T-helper (Th) subsets and % RO analyses were conducted by flow cytometry of freshly stained live samples.
# [8] = Drug exposure in plasma and Peyer's patches after oral dosing
# Description: as §2
# [9] = Oral bioavailability in cynomolgus monkeys; details: cynomolgus monkey, in vivo
# [10] = Anti-CD3 + MAdCAM1 + 1 uM Compound A
smiles,measurement,setting,value
"CC(C)C[C@@H]1NC(=O)[C@H](C(C)O)NC(=O)[C@H](CC(=O)O)NC(=O)[C@H](CO)NC(=O)[C@H](CCCNC(=N)N)N(C)C(=O)c2ccccc2CSC(C)(C)[C@@H](C(=O)N[C@@H](Cc2ccc(C(C)(C)C)cc2)C(=O)N[C@@H](CCC(=O)O)CC(=O)N[C@H](CCCCNC(=O)COCC(=O)NCCCC[C@@H](NC(=O)C[C@H](CCC(=O)O)NC(=O)[C@H](Cc2ccc(C(C)(C)C)cc2)NC(=O)[C@H]2NC(=O)[C@H](CC(C)C)NC(=O)[C@H](C(C)O)NC(=O)[C@H](CC(=O)O)NC(=O)[C@H](CO)NC(=O)[C@H](CCCNC(=N)N)N(C)C(=O)c3ccccc3CSC2(C)C)C(=O)O)C(=O)O)NC1=O (stereo partly drawn) [Compound A, ((2-Benzyl)-(N-Me-R)-Ser-Asp-Thr-Leu-Pen-(Phe(4-tBlu))-(β-homo-Glu)-(D-Lys)-OH)2 (SEQ ID NO: 5) and linker-DIG diglycolic acid] (I: [NMeR]SD[Thr(3ξ)]L[Pen][Phe(4-tBu)][β3hE][dK]-OH / II: [NMeR]SD[Thr(3ξ)]L[Pen][Phe(4-tBu)][β3hE][dK]-OH; linker I:9-II:9 via Diglycolyl; linker I:N-I:6, II:N-II:6 via X1)","maximally tolerated dose, multiple dose (highest dose tested)",[1]; healthy volunteers,1000 mg
same,"maximally tolerated dose, single dose (highest dose tested)",[1]; healthy volunteers,1400 mg
same,subjects reporting AEs,[1]; multiple doses,Thirty
same,total AEs,[1]; multiple doses,68 AEs
same,QTc prolongation,[1]; single and multiple doses,no evidence of QTc prolongation was observed
same,tolerability,[1],generally well tolerated
same,tolerability,[1]; listed as COMPOUND A,safe and well tolerated
same,TEAEs in subjects who received drug,[1]; single ascending dose phase,21 events
same,subjects with TEAEs who received drug,[1]; single ascending dose phase,12 subjects
same,dose-limiting toxicities,"[1]; single doses up to 1400 mg, multiple up to 1000 mg",no dose-limiting toxicities observed
same,inhibition of MAdCAM1-mediated cytokine production,[2],Concentration-dependent and full inhibition
same,"expression of CCR9, ATRA+/Compound A vs ATRA+/DMSO cultures",[3],did not appear to be affected
same,"expression of integrin α4, ATRA+/Compound A vs ATRA+/DMSO cultures",[3],lower
same,"proportion of integrin β7+ cells, ATRA+/Compound A vs ATRA+/DMSO cultures",[3],lower proportion; also recorded: smaller proportion
same,ATRA+/10^3 live cells +/− SD in Ileal LP,[4]; cells cultured with 100 nM,4.3 +/− 1.7 /10^3 live cells
same,ATRA+/10^3 live cells +/− SD in Peyer's patches,[4]; cells cultured with 100 nM,0.3 +/− 0.2 /10^3 live cells
same,ATRA+/10^3 live cells +/− SD in spleen,[4]; cells cultured with 100 nM,2.9 +/− 0.3 /10^3 live cells
same,ATRA−/10^3 live cells +/− SD in Ileal LP,[4]; cells cultured with 100 nM,0.3 +/− 0.1 /10^3 live cells
same,ATRA−/10^3 live cells +/− SD in Peyer's patches,[4]; cells cultured with 100 nM,0.2 +/− 0.2 /10^3 live cells
same,ATRA−/10^3 live cells +/− SD in spleen,[4]; cells cultured with 100 nM,9.0 +/− 1.1 /10^3 live cells
same,"CD45.1+ cells/10^3 live cells +/− SD, Ileal LP",[4]; cells cultured with 100 nM,4.6 +/− 1.8 /10^3 live cells
same,"CD45.1+ cells/10^3 live cells +/− SD, Peyer's patches",[4]; cells cultured with 100 nM,0.6 +/− 0.3 /10^3 live cells
same,"CD45.1+ cells/10^3 live cells +/− SD, Spleen",[4]; cells cultured with 100 nM,12.1 +/− 1.4 /10^3 live cells
same,"Total number of cells isolated (×10^3), Ileal LP",[4]; cells cultured with 100 nM,2005 +/− 1276 ×10^3
same,"Total number of cells isolated (×10^3), Peyer's patches",[4]; cells cultured with 100 nM,673 +/− 295 ×10^3
same,"Total number of cells isolated (×10^3), Spleen",[4]; cells cultured with 100 nM,100650 +/− 10215 ×10^3
same,ATRA+/10^3 live cells +/− SD in Ileal LP,[4]; cells cultured with 1000 nM,3.5 +/− 1.8 /10^3 live cells
same,ATRA+/10^3 live cells +/− SD in Peyer's patches,[4]; cells cultured with 1000 nM,0.3 +/− 0.1 /10^3 live cells
same,ATRA+/10^3 live cells +/− SD in spleen,[4]; cells cultured with 1000 nM,2.4 +/− 0.5 /10^3 live cells
same,ATRA−/10^3 live cells +/− SD in Ileal LP,[4]; cells cultured with 1000 nM,0.2 +/− 0.1 /10^3 live cells
same,ATRA−/10^3 live cells +/− SD in Peyer's patches,[4]; cells cultured with 1000 nM,0.2 +/− 0.1 /10^3 live cells
same,ATRA−/10^3 live cells +/− SD in spleen,[4]; cells cultured with 1000 nM,8.0 +/− 1.4 /10^3 live cells
same,"CD45.1+ cells/10^3 live cells +/− SD, Ileal LP",[4]; cells cultured with 1000 nM,3.8 +/− 1.7 /10^3 live cells
same,"CD45.1+ cells/10^3 live cells +/− SD, Peyer's patches",[4]; cells cultured with 1000 nM,0.6 +/− 0.1 /10^3 live cells
same,"CD45.1+ cells/10^3 live cells +/− SD, Spleen",[4]; cells cultured with 1000 nM,10.6 +/− 1.9 /10^3 live cells
same,"Total number of cells isolated (×10^3), Ileal LP",[4]; cells cultured with 1000 nM,1730 +/− 1023 ×10^3
same,"Total number of cells isolated (×10^3), Peyer's patches",[4]; cells cultured with 1000 nM,775 +/− 360 ×10^3
same,"Total number of cells isolated (×10^3), Spleen",[4]; cells cultured with 1000 nM,90617 +/− 13418 ×10^3
same,IC50,[5]; read-out: estimated IC50 for receptor occupancy (converted),0.251 nM
same,IC80,[5]; read-out: estimated IC80 for receptor occupancy,5.9 ng/mL
same,"receptor occupancy in whole blood and Peyer's patches, 30 mg/kg vs 3 mg/kg dose group",[6]; PO,significantly higher
same,receptor occupancy in Peyer's patches compared to whole blood,[6]; both dose groups (3 and 30 mg/kg PO),significantly higher
same,receptor occupancy at 30 mg/kg,"[6]; mouse, 30 mg/kg dose",100%
same,"Th1-IFNγ, CD4+ T-cells",[7]; [10],15%
same,"Th2-IL-4, CD4+ T-cells",[7]; [10],0.7%
same,"Th17-IL-17A, CD4+ T-cells",[7]; [10],0.6%
same,surface expression of β7 in undivided CD4+ T-cells,[7]; tested in 5 donors,lowered
same,concentration in plasma and Peyer's Patches vs dose,[8]; 3 and 30 mg/kg,significant dose-dependent increase
same,concentration in Peyer's Patches compared to plasma,[8]; both dose levels (3 and 30 mg/kg),significantly higher
same,bioavailability,[9],< 1%
same,"Complete Mayo Score, Adapted Mayo Score, and/or Partial Mayo Score vs placebo",450 mg BID or 150 mg BID,statistically significant improvement
same,safety of treatment,in vivo,safe
